Activity calls are given as the source filed them. The rule behind the calls is not given here.
What was measured:
[1] = target: Histone deacetylase (Homo sapiens) (UniProt Q13547+O15379+Q9UBN7+Q92769+Q9UQL6+Q8WUI4+Q9BY41+Q96DB2+P56524+Q9UKV0+Q969S8); details: SH-SY5Y, at 3 mM
Description: Inhibition of HDAC in human SH-SY5Y cells under ER stress assessed as acetylated H3 levels at 3 mM after 48 hrs by Western blot analysis in presence of tunicamycin

[2] = Chemical chaperone activity assessed as suppression of alpha-lactalbumin-bovine serum albumin aggregation at 3 mM by turbidity assay; assay type: functional

Row | inhibition [1] | SMILES | Activity [2]
1 | Active | O=C(O)CCCc1ccc([N+](=O)[O-])cc1 | –
2 | Active | O=C(O)CCCc1ccccc1 | Active
3 | Active | COc1ccc(CCCC(=O)O)cc1 | –

Source: ChEMBL document CHEMBL2434862, “4-Phenylbutyric acid protects against neuronal cell death by primarily acting as a chemical chaperone rather than histone deacetylase inhibitor” (Bioorg Med Chem Lett, 2013)
